Reference: ChEMBL document CHEMBL3046694, “3D QSAR STUDIES OF INHIBITORS OF EPIDERMAL GROWTH FACTOR RECEPTOR [EGFR] USING CoMFA AND GFA METHODOLOGIES” (Med Chem Res, 2004)

The molecules below were run against Epidermal growth factor receptor (Homo sapiens, UniProt P00533) (assay: Inhibition of EGFR (unknown origin)).
Chain of Epidermal growth factor receptor (P00533 whole entry): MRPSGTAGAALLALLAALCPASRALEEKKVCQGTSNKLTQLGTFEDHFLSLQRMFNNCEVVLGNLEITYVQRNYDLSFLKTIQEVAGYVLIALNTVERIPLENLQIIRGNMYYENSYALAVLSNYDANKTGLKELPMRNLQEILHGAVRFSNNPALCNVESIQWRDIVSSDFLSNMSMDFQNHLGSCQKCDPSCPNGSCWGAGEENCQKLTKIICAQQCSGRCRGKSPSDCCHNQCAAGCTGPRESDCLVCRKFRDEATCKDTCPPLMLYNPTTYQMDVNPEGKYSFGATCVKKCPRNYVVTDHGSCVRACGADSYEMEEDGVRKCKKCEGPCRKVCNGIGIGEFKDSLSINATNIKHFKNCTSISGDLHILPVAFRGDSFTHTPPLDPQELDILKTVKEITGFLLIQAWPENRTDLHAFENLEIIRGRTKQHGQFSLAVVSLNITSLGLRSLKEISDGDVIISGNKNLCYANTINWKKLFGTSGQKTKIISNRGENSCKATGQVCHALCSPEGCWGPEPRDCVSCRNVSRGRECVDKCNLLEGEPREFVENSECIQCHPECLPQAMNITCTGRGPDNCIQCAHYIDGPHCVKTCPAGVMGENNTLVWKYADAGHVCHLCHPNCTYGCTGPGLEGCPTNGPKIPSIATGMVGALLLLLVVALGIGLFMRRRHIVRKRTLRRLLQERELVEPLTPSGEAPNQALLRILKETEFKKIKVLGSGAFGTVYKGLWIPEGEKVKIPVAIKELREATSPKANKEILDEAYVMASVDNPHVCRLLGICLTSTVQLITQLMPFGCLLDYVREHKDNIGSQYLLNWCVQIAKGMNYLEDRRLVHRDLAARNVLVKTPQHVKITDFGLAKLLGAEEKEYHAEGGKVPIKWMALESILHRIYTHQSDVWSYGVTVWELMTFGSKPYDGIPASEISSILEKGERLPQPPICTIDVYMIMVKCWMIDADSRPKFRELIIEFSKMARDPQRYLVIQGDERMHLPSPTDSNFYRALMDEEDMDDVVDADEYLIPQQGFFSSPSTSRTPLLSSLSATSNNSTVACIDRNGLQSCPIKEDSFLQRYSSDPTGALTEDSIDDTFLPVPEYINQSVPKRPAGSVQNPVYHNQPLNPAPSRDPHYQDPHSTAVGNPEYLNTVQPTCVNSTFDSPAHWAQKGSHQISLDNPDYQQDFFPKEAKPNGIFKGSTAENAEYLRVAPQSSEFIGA
Molecule COCC#CC(=O)Nc1ccc2ncc(C#N)c(Nc3cccc(Br)c3)c2c1 has an IC50 of 960 nM.
For COCCOCC#CC(=O)Nc1ccc2ncc(C#N)c(Nc3cccc(Br)c3)c2c1, the IC50 was 930 nM.
In the case of CC#CC(=O)Nc1cc2c(Nc3cccc(Br)c3)c(C#N)cnc2cc1OC, the IC50 is reported as 190 nM.
COc1cc2ncc(C#N)c(Nc3cccc(Br)c3)c2cc1NC(=O)C#CCN(C)C showed an IC50 of 90 nM.
COC[C@@H]1CCCN1CC#CC(=O)Nc1ccc2ncc(C#N)c(Nc3cccc(Br)c3)c2c1 was tested, and the IC50 was 150 nM.
C=C(CN(C)C)C(=O)Nc1cc2c(Nc3ccc(F)c(Cl)c3)c(C#N)cnc2cc1OCC was tested, and the IC50 was 560 nM.
CCCNCC#CC(=O)Nc1ccc2ncc(C#N)c(Nc3cccc(Br)c3)c2c1 gave an IC50 of 130 nM.
COc1cc2ncc(C#N)c(Nc3cccc(Br)c3)c2cc1NC(=O)/C=C/CN(C)C gave an IC50 of 790 nM.
C=CC(=O)Nc1ccc2ncc(C#N)c(Nc3cccc(Br)c3)c2c1 showed an IC50 of 590 nM.
Work on CC#CC(=O)Nc1ccc2ncc(C#N)c(Nc3cccc(Br)c3)c2c1 yielded an IC50 of 940 nM.
CN(C)C/C=C/C(=O)Nc1ccc2ncc(C#N)c(Nc3cccc(Br)c3)c2c1 gave an IC50 of 310 nM.
In the case of CN(C)C/C=C/C(=O)Nc1ccc2ncc(C#N)c(Nc3ccc(F)c(Cl)c3)c2c1, the IC50 is reported as 650 nM.
For C=CC(=O)Nc1cc2c(Nc3cccc(Br)c3)c(C#N)cnc2cc1OC, the IC50 was 810 nM.
COCC#CC(=O)Nc1cc2c(Nc3cccc(Br)c3)c(C#N)cnc2cc1OC was tested, and the IC50 was 791 nM.
N#Cc1cnc2ccc(NC(=O)C#CCN3CCSCC3)cc2c1Nc1cccc(Br)c1 showed an IC50 of 550 nM.
